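Briefly, cells in 96-well plates were exposed to five compound concentrations for 48 h, and endpoints were estimated by linear interpolation. Abbreviation: GI50, concentration required for 50% inhibition of growth.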 Activity calls are given as the source filed them. No stated cut-off is given here; in the data, active = GI50 up to about 1.1 µM and inactive = higher.
Experiments:
Assay in all cases: NCI-60 cell line screen, 48 h
HT-29 = system: HT-29
HOP-62 = system: HOP-62
LOX IMVI = system: LOX IMVI
SF-268 = system: SF-268
MOLT-4 = system: MOLT-4
RPMI-8226 = system: RPMI-8226
MDA-N = system: MDA-N
UO-31 = system: UO-31
OVCAR-5 = system: OVCAR-5
K562 = system: K562
MCF7 = system: MCF7
786-0 = system: 786-0
HCT-15 = system: HCT-15
SK-OV-3 = system: SK-OV-3
IGROV-1 = system: IGROV-1
OVCAR-4 = system: OVCAR-4
SF-539 = system: SF-539
SK-MEL-28 = system: SK-MEL-28
TK-10 = system: TK-10
NCI-H460 = system: NCI-H460

SMILES | GI50 (HT-29) | GI50 (HOP-62) | GI50 (LOX IMVI) | GI50 (SF-268) | GI50 (MOLT-4) | GI50 (RPMI-8226) | GI50 (MDA-N) | GI50 (UO-31) | GI50 (OVCAR-5) | GI50 (K562) | GI50 (MCF7) | GI50 (786-0) | GI50 (HCT-15) [µM] | GI50 (SK-OV-3) | GI50 (IGROV-1) | GI50 (OVCAR-4) | GI50 (SF-539) | GI50 (SK-MEL-28) | GI50 (TK-10) | GI50 (NCI-H460)
Cc1c(CCCl)c(N=[N+]=[N-])n2c(nc3ccccc32)c1C#N | 1.58 µM (inactive) | 2.13 µM (inactive) | 0.902 µM (active) | 2.22 µM (inactive) | 0.249 µM (active) | 0.385 µM (active) | 1.56 µM (inactive) | 1.65 µM (inactive) | 1.94 µM (inactive) | 0.29 µM (active) | 0.47 µM (active) | 0.601 µM (active) | 1.3 | 2.11 µM (inactive) | 1.01 µM (active) | 1.53 µM (inactive) | 1.82 µM (inactive) | 1.58 µM (inactive) | 1.52 µM (inactive) | 1.39 µM (inactive)
CC(C)NC(=O)OCc1c2c(n(C)c1COC(=O)NC(C)C)-c1cc(Cl)c(Cl)cc1CC2 | 31 µM (inactive) | 54.5 µM (inactive) | 38.3 µM (inactive) | 69.2 µM (inactive) | 18.7 µM (inactive) | 23.4 µM (inactive) | 32 µM (inactive) | 27 µM (inactive) | 25.8 µM (inactive) | 16.6 µM (inactive) | 15.8 µM (inactive) | 37.2 µM (inactive) | 23.8 | 33.7 µM (inactive) | 20.3 µM (inactive) | 64.6 µM (inactive) | 50.2 µM (inactive) | 64.1 µM (inactive) | 25.2 µM (inactive) | 34.4 µM (inactive)
CCOC(=O)c1ccc(Nc2cnc3cc(C(F)(F)F)ccc3n2)cc1 | > 100 µM (inactive) | > 100 µM (inactive) | > 100 µM (inactive) | > 100 µM (inactive) | > 100 µM (inactive) | > 100 µM (inactive) | > 100 µM (inactive) | > 100 µM (inactive) | > 100 µM (inactive) | > 100 µM (inactive) | > 10 µM (inactive) | 40.3 µM (inactive) | > 100 | > 100 µM (inactive) | > 100 µM (inactive) | > 100 µM (inactive) | 79.6 µM (inactive) | 85.9 µM (inactive) | > 100 µM (inactive) | > 100 µM (inactive)
Cc1ccc(S(=O)(=O)NC(=O)NCC(N)=O)cc1 | > 100 µM (inactive) | > 100 µM (inactive) | > 100 µM (inactive) | > 100 µM (inactive) | > 100 µM (inactive) | > 100 µM (inactive) | > 100 µM (inactive) | > 100 µM (inactive) | > 100 µM (inactive) | > 100 µM (inactive) | > 100 µM (inactive) | > 100 µM (inactive) | > 100 | > 100 µM (inactive) | > 100 µM (inactive) | > 100 µM (inactive) | > 100 µM (inactive) | > 100 µM (inactive) | > 100 µM (inactive) | > 100 µM (inactive)
